For one series, the species on record is Rattus norvegicus. Briefly: Anti-angiogenic activity as inhibition of microvessel growth in rat aortic ring cultured in a fibrin clot. Type of series: functional. The following applies: Aorta.
Series [1] in a line: Compound was evaluated for ocular toxicity assessed after oral dosing at 40 mg/kg b.i.d. in male Wistar rat; No. Type of series: organism-based, Eye. Further details: dose 40 mg/kg, route oral. The following applies: in vivo.
Series [2] is described as follows: Compound was evaluated for ocular toxicity assessed after oral dosing at 40 mg/kg b.i.d. in male Wistar rat; Yes. The following applies: in vivo. Further details: dose 40 mg/kg, route oral. Type of series: organism-based, Eye.
The test system of series [3] is 3LL cell line. The series is described as follows: In vivo anti-tumor and anti-metastatic activity was measured after oral dosing 15 mg/kg b.i.d. to B6D2F1 mice bearing metastatic 3LL Lewis lung tumor. Type of series: functional. The following applies: Mus musculus.
Series [4] in a line: Compound was evaluated for ocular toxicity assessed after oral dosing at 40 mg/kg b.i.d. in male Wistar rat; Very weak. The following applies: in vivo. Further details: dose 40 mg/kg, route oral. Type of series: organism-based, Eye.
Series [5] relates to 3LL cell line. The series is described as follows: In vivo anti-tumor and anti-metastatic activity was measured after oral dosing b.i.d. to B6D2F1 mice bearing metastatic 3LL Lewis lung tumor. Type of series: functional, Mus musculus.

As a reminder, the pIC50 is −log10 of the IC50, conventionally taken in molar units. One may read the inhibition in vivo as how much of the control response was suppressed. Lower therefore signals a response near the control. By Inhibition is commonly meant the drop in the measured response relative to a control, in per cent. A high value points to a strong effect.

pIC50: −log10 of the molar value.

`Cc1nsc(-c2ccnc(N3CCN(c4cccc(C(F)(F)F)c4)CC3)n2)n1` showed a pIC50 in the series filed under Rattus norvegicus of less than 7.00.
In turn, `Cc1nsc(-c2ccc(N3CCN(c4cccc(C#N)c4)CC3)nn2)n1` had a pIC50 in the series filed under Rattus norvegicus of 8.52.
Consider `CNc1nsc(-c2ccc(N3CCN(c4cccc(C(F)(F)F)c4)CC3)nn2)n1`, for which, in the series listed under Rattus norvegicus, the pIC50 was 8.52. Besides, the Eye toxicity result in series [1] is reported as “No toxicity”.
In the series listed under Rattus norvegicus, `Cc1nsc(-c2ccc(N3CCN(c4cccc(C(F)(F)F)c4)CC3)nn2)n1` gave a pIC50 of 9.52. For the same compound, in series [2], the Eye toxicity result is given as “Yes”.
In the series filed under Rattus norvegicus, `Cc1nsc(-c2ccc(N3CCN(c4cccc(F)c4)CC3)nn2)n1` showed a negative logarithm of the IC50 (pIC50) of 8.22.
`FC(F)(F)c1cccc(NC2CCN(c3ccc(-c4ncns4)nn3)CC2)c1` gave an inhibition in vivo at 15 mg/kg in the series on 3LL cell line [3] of 42%. This compound showed a pIC50 in the series listed under Rattus norvegicus of 8.15. The Eye toxicity result in series [1] is “No toxicity”.
`Cc1nsc(-c2ccc(N3CCN(c4cccc(C(F)(F)F)c4)CC3)cc2)n1` had a pIC50 in the series filed under Rattus norvegicus of 8.00. Moreover, the Eye toxicity entry in series [1] is given as “No toxicity”.
As for `Cc1nsc(-c2ccc(N3CCN(c4cc(C(F)(F)F)cc(C(F)(F)F)c4)CC3)nn2)n1`, the pIC50 in the series listed under Rattus norvegicus was greater than 10.00. In addition, the Eye toxicity result in series [2] was “Yes”.
As for `Cc1nsc(-c2ccc(N3CCN(c4cc(Cl)cc(Cl)c4)CC3)nn2)n1`, the pIC50 in the series filed under Rattus norvegicus is greater than 10.00. For the same compound, the Eye toxicity result in series [2] is recorded as “Yes”.
The compound `Cc1nsc(-c2ccc(N3CCN(c4cccc(C(F)(F)F)c4)CC3)nc2)n1` showed a pIC50 in the series listed under Rattus norvegicus of 8.30. For the same compound, the Eye toxicity entry in series [1] is “No toxicity”.
In the series filed under Rattus norvegicus, `Cc1nsc(-c2ccc(N3CCN(c4cccc(N)c4)CC3)nn2)n1` showed a pIC50 of less than 7.00.
`CCc1nsc(-c2ccc(N3CCN(c4cccc(C(F)(F)F)c4)CC3)nn2)n1` showed a pIC50 in the series filed under Rattus norvegicus of 8.10. Further, the Eye toxicity result in series [1] is reported as “No toxicity”.
As to `CN(C)c1nsc(-c2ccc(N3CCC(N4CCN(c5cccc(C(F)(F)F)c5)CC4)CC3)nn2)n1`, the inhibition in vivo at 15 mg/kg in the series on 3LL cell line [3] amounted to 25%. In the series listed under Rattus norvegicus, this compound showed a pIC50 greater than 9.00. In series [4], the Eye toxicity entry is given as “Very weak”.
In turn, `Cc1nsc(-c2ccc(N3CCN(c4cccc(Cl)c4)CC3)nn2)n1` gave a pIC50 in the series listed under Rattus norvegicus of 9.22. Moreover, the Eye toxicity entry in series [2] is given as “Yes”.
With `FC(F)(F)c1cc(N2CCN(c3ccc(-c4ncns4)nn3)CC2)cc(C(F)(F)F)c1`, the Inhibition with 3LL cell line [5] worked out at 24%. Moreover, the pIC50 in the series filed under Rattus norvegicus was greater than 9.00. In addition, in series [1], the Eye toxicity result was “No toxicity”.
Consider `Cc1nsc(-c2ccc(N3CCN(c4ccc(C(F)(F)F)cc4)CC3)nn2)n1`, for which, in the series filed under Rattus norvegicus, the pIC50 was 7.92.
`Cc1nsc(-c2ccc(N3CCN(c4ccccc4C(F)(F)F)CC3)nn2)n1` had a negative-log IC50 (pIC50) in the series filed under Rattus norvegicus of 9.70. The Eye toxicity entry in series [2] is recorded as “Yes”.
`Cc1nsc(-c2nccc(N3CCN(c4cccc(C(F)(F)F)c4)CC3)n2)n1` showed a pIC50 in the series listed under Rattus norvegicus of less than 7.00. Further, the Eye toxicity entry in series [1] is listed as “No toxicity”.
In the series on 3LL cell line [3], `CN(C)c1nsc(-c2ccc(N3CCN(c4ccccc4)CC3)nn2)n1` displayed an inhibition in vivo at 15 mg/kg of 13%. The pIC50 in the series filed under Rattus norvegicus was 10.00. The Eye toxicity result in series [1] is “No toxicity”.
On to `FC(F)(F)c1cccc(N2CCN(c3ccc(-c4ncns4)nn3)CC2)c1`, for which the pIC50 in the series listed under Rattus norvegicus is 7.15. Further, in series [1], the Eye toxicity result is recorded as “No toxicity”.
For the compound `COc1cccc(N2CCN(c3ccc(-c4nc(C)ns4)nn3)CC2)c1`, the pIC50 in the series listed under Rattus norvegicus was 8.15.
The compound `Cc1nsc(-c2ccc(N3CCN(c4cccc([N+](=O)[O-])c4)CC3)nn2)n1` gave a pIC50 in the series listed under Rattus norvegicus of 8.52. For the same compound, in series [2], the Eye toxicity entry is “Yes”.
In the series filed under Rattus norvegicus, `Nc1nsc(-c2ccc(N3CCN(c4cccc(C(F)(F)F)c4)CC3)nn2)n1` gave a pIC50 of 7.70. In addition, the Eye toxicity result in series [1] is recorded as “No toxicity”.
`FC(F)(F)c1cccc(N2CCN(C3CCN(c4ccc(-c5ncns5)nn4)CC3)CC2)c1` displayed an inhibition in vivo at 15 mg/kg in the series with 3LL cell line [3] of 54%. This compound also gave a negative logarithm of the IC50 (pIC50) in the series listed under Rattus norvegicus of 9.52. In addition, in series [1], the Eye toxicity entry is reported as “No toxicity”.
In the series with 3LL cell line [3], `CN(C)c1nsc(-c2ccc(N3CCN(c4cccc(C(F)(F)F)c4)CC3)nn2)n1` showed an inhibition in vivo at 15 mg/kg of 39%. The Eye toxicity entry in series [1] is “No toxicity”.

The record behind these values is ChEMBL document CHEMBL1135068, “Synthesis and anti-angiogenic activity of 6-(1,2,4-thiadiazol-5-yl)-3-amino pyridazine derivatives” (Bioorg Med Chem Lett, 2002).
